Reference: ChEMBL document CHEMBL5247620, “Lupane derivatives containing various aryl substituents in the position 3 have selective cytostatic effect in leukemic cancer cells including resistant phenotypes” (Eur J Med Chem, 2022)

Columns and labels:
[1] = Cytotoxicity against human MRC5 cells assessed as inhibition of cell growth incubated for 72 hrs by MTS assay; assay type: toxicity, cell-based
[2] = test system: CEM-DNR; experiment: Cytotoxicity against human CEM-DNR cells assessed as inhibition of cell growth incubated for 72 hrs by MTS assay; assay type: functional, cell-based
[3] = Cytotoxicity against human p53HCT116 cells assessed as inhibition of cell growth incubated for 72 hrs by MTS assay; assay type: functional, cell-based; settings: p53HCT116, 72 h
[4] = test system: U2OS; experiment: Cytotoxicity against human U2OS cells assessed as inhibition of cell growth incubated for 72 hrs by MTS assay; assay type: functional, cell-based
[5] = test system: CCRF-CEM; experiment: Cytotoxicity against human CCRF-CEM cells assessed as inhibition of cell growth incubated for 72 hrs by MTS assay; assay type: functional, cell-based
[6] = Cytotoxicity against human K562-Tax cells assessed as inhibition of cell growth incubated for 72 hrs by MTS assay; assay type: functional, cell-based
[7] = test system: HCT-116; experiment: Cytotoxicity against human HCT-116 cells assessed as inhibition of cell growth incubated for 72 hrs by MTS assay; assay type: functional, cell-based; settings: HCT-116, 72 h
[8] = Cytotoxicity against human BJ cells assessed as inhibition of cell growth incubated for 72 hrs by MTS assay; assay type: toxicity, cell-based
[9] = test system: K562; experiment: Cytotoxicity against human K562 cells assessed as inhibition of cell growth incubated for 72 hrs by MTS assay; assay type: functional, cell-based; settings: K562, 72 h
[10] = test system: A549; experiment: Cytotoxicity against human A549 cells assessed as inhibition of cell growth incubated for 72 hrs by MTS assay; assay type: functional, cell-based; settings: A549, 72 h

| SMILES | IC50 at 72 h [1] [µM] | IC50 [2] [µM] | IC50 [3] [µM] | IC50 [4] [µM] | IC50 [5] [µM] | IC50 [6] [µM] | IC50 [7] [µM] | IC50 at 72 h [8] [µM] | IC50 [9] [µM] | IC50 [10] [µM] |
| --- | --- | --- | --- | --- | --- | --- | --- | --- | --- | --- |
| C=C(C)[C@@H]1CC[C@]2(C(=O)O)CC[C@]3(C)[C@H](CC[C@@H]4[C@@]5(C)CC=C(c6ccccc6O)C(C)(C)[C@@H]5CC[C@]43C)[C@@H]12 | 31 | 30 | > 50 | 26 | 10 | 15 | 30 | > 50 | > 50 | 41 |
| C=C(C)[C@@H]1CC[C@]2(C(=O)O)CC[C@]3(C)[C@H](CC[C@@H]4[C@@]5(C)CC=C(c6cccc([N+](=O)[O-])c6)C(C)(C)[C@@H]5CC[C@]43C)[C@@H]12 | 48 | 43 | 47 | 46 | 18 | 24 | 48 | 50 | 45 | 34 |
| C=C(C)[C@@H]1CC[C@]2(C(=O)O)CC[C@]3(C)[C@H](CC[C@@H]4[C@@]5(C)CC=C(c6ccccc6OC)C(C)(C)[C@@H]5CC[C@]43C)[C@@H]12 | 27 | 24 | 23 | 28 | 16 | 23 | 24 | 48 | 30 | 42 |
| C=C(C)[C@@H]1CC[C@]2(C(=O)O)CC[C@]3(C)[C@H](CC[C@@H]4[C@@]5(C)CC=C(c6ccc(OC)cc6)C(C)(C)[C@@H]5CC[C@]43C)[C@@H]12 | 46 | 50 | 50 | 42 | 23 | 50 | 50 | 50 | 50 | 43 |
| C=C(C)[C@@H]1CC[C@]2(C(=O)O)CC[C@]3(C)[C@H](CC[C@@H]4[C@@]5(C)CC=C(c6cccc(C(F)(F)F)c6)C(C)(C)[C@@H]5CC[C@]43C)[C@@H]12 | 50 | 37 | > 50 | 45 | 19 | 30 | 37 | > 50 | > 50 | 46 |
| C=C(C)[C@@H]1CC[C@]2(C(=O)O)CC[C@]3(C)[C@H](CC[C@@H]4[C@@]5(C)CC=C(c6ccc(N)cc6)C(C)(C)[C@@H]5CC[C@]43C)[C@@H]12 | > 50 | 11 | 24 | 22 | 3.8 | 19 | 25 | > 50 | 17 | 26 |
| C=C(C)[C@@H]1CC[C@]2(C(=O)O)CC[C@]3(C)[C@H](CC[C@@H]4[C@@]5(C)CC=C(c6ccccc6N)C(C)(C)[C@@H]5CC[C@]43C)[C@@H]12 | > 50 | 46 | 18 | 27 | 11 | 44 | 46 | > 50 | 46 | 24 |
| C=C(C)[C@@H]1CC[C@]2(C(=O)OCc3ccccc3)CC[C@]3(C)[C@H](CC[C@@H]4[C@@]5(C)CC=C(OS(=O)(=O)C(F)(F)F)C(C)(C)[C@@H]5CC[C@]43C)[C@@H]12 | 27 | 22 | 29 | 29 | 14 | 18 | 22 | 40 | 23 | 20 |
| C=C(C)[C@@H]1CC[C@]2(C(=O)O)CC[C@]3(C)[C@H](CC[C@@H]4[C@@]5(C)CC=C(c6ccccc6C(=O)OC)C(C)(C)[C@@H]5CC[C@]43C)[C@@H]12 | 22 | 27 | 23 | 25 | 15 | 29 | 27 | 38 | 26 | 26 |
| C=C(C)[C@@H]1CC[C@]2(C(=O)O)CC[C@]3(C)[C@H](CC[C@@H]4[C@@]5(C)CC=C(c6cccc(OC)c6)C(C)(C)[C@@H]5CC[C@]43C)[C@@H]12 | > 50 | 31 | > 50 | 35 | 15 | 29 | 31 | > 50 | > 50 | 45 |
| C=C(C)[C@@H]1CC[C@]2(C(=O)O)CC[C@]3(C)[C@H](CC[C@@H]4[C@@]5(C)CC=C(c6cccc(C(=O)OC)c6)C(C)(C)[C@@H]5CC[C@]43C)[C@@H]12 | 44 | > 50 | 41 | 8.8 | 17 | 43 | 50 | > 50 | > 50 | > 50 |
| C=C(C)[C@@H]1CC[C@]2(C(=O)O)CC[C@]3(C)[C@H](CC[C@@H]4[C@@]5(C)CC=C(c6ccc(C(=O)OC)cc6)C(C)(C)[C@@H]5CC[C@]43C)[C@@H]12 | 46 | 47 | 47 | 46 | 46 | 7.2 | 47 | 47 | 48 | 47 |
| C=C(C)[C@@H]1CC[C@]2(C(=O)O)CC[C@]3(C)[C@H](CC[C@@H]4[C@@]5(C)CC=C(c6ccc([N+](=O)[O-])cc6)C(C)(C)[C@@H]5CC[C@]43C)[C@@H]12 | > 50 | > 50 | > 50 | 42 | 26 | > 50 | > 50 | > 50 | > 50 | > 50 |
